For one data set, the system named is HeLa cells. Description: Secondary assay: cell proliferation WST-1, HeLa. Type of data set: cell-based. Particulars: Homo sapiens, 48 h, read-out: Cell Proliferation Inhibition WST-1 (IC50 unless otherwise specified) HeLa. How it is done: Compounds with HDAC inhibition activity, as determined using the primary assay, were subsequently evaluated using secondary cell-based assays. The following cell lines were used:
HeLa—Human cervical adenocarcinoma cell line (ATCC ref. No. CCL-2).
Cells were plated in 96-well plates at 3-10×10^3 cells/well in 100 μL of culture medium. The following day, different concentrations of candidate compounds were added and the cells incubated at 37° C. for 48 h. Subsequently, 10 μL/well of WST-1 reagent was added and the cells reincubated for 1 hour. After the incubation time, absorbance was measured.
WST-1 is a tetrazolium salt which is cleaved to formazan dye by cellular enzymes. An expansion in the number of viable cells results in an increase in the overall activity of mitochondrial dehydrogenases in the sample. This augmentation in the enzyme activity leads to an increase in the amount of formazan dye formed, which directly correlates to the number of metabolically active cells in the culture. The formazan dye produced is quantified by a scanning multiwell spectrophotometer by measuring the absorbance of the dye solution at 450 nm wavelength (reference wavelength 690 nm).
Percent activity (% activity) in reducing the number of viable cells was calculated for each test compound as: % activity={(S^C−B)/(S^o−B)}×100 wherein S^C denotes signal measured in the presence of the compound being tested, S^o denotes signal measured in the absence of the compound being tested, and B denotes the background signal measured in blank wells containing medium only.
IC50 values were calculated using the software package Prism 3.0 (GraphPad software Inc., San Diego, Calif.), setting top value at 100 and bottom value at 0.

Another data set deals with HDAC (HeLa cell extract). Description: Primary assay: deacetylase activity, HeLa cell extract as source of HDAC. Type of data set: biochemical, human. Particulars: HeLa cell extract; for HDAC Inhibition HeLa, percent: @ 500 nM. The text has this: Briefly, this assay relies on the release of radioactive acetate from a radioactively labelled histone fragment by the action of HDAC enzyme. Test compounds, which inhibit HDAC, reduce the yield of radioactive acetate. Signal (e.g., scintillation counts) measured in the presence and absence of a test compound provide an indication of that compound's ability to inhibit HDAC activity. Decreased activity indicates increased inhibition by the test compound.
The histone fragment was an N-terminal sequence from histone H4, and it was labelled with radioactively labelled acetyl groups using tritiated acetylcoenzyme A (coA) in conjunction with an enzyme which is the histone acetyltransferase domain of the transcriptional coactivator p300. […] The acetylated peptide was then separated from free acetyl coA by size exclusion chromatography on Sephadex G-15 (Sigma G-15-120), using distilled H2O as the mobile phase.
After purification of the radiolabelled histone fragment, it was incubated with a source of HDAC (e.g., an extract of HeLa cells (a rich source of HDAC), recombinantly produced HDAC1 or HDAC2) and any released acetate was extracted into an organic phase and quantitatively determined using scintillation counting. By including a test compound with the source of HDAC, that compound's ability to inhibit the HDAC was determined.
The HeLa cell extract was made from HeLa cells (ATCC Ref. No. CCL-2) by freeze-thawing three times in 60 mM TrisCl pH 8.0, 450 mM NaCl, 30% glycerol. Two cell volumes of extraction buffer were used, and particulate material was centrifuged out (20800 g, 4° C., 10 min). The supernatant extract having deacetylase activity was aliquotted and frozen for storage.
A source of HDAC (e.g., 2 μL of crude HeLa extract, 5 μL of HDAC1 or HDAC2; in elution buffer, as above) was incubated with 3 μL of radioactively labelled peptide along with appropriate dilutions of candidate compounds (1.5 μL) in a total volume of 150 μL of buffer (20 mM Tris pH 7.4, 10% glycerol). The reaction was carried out at 37° C. for one hour, after which the reaction was stopped by adding 20 μL of 1 M HCl/0.4 M sodium acetate. […] Radioactivity was measured using a Tri-Carb 2100TR Liquid Scintillation Analyzer (Packard).
Percent activity (% activity) for each test compound was calculated as: % activity={(S^C−B)/(S^o−B)}×100 wherein S^C denotes signal measured in the presence of enzyme and the compound being tested, S^o denotes signal measured in the presence of enzyme but in the absence of the compound being tested, and B denotes the background signal measured in the absence of both enzyme and compound being tested.

Where [1] appears, read: read-out: HDAC Inhibition (IC50 unless otherwise specified) HeLa.
Where [2] appears, read: comparative tables, read-out: HeLa IC50.

Where two headings read alike, the source gives them in different places.

Consider `O=C(/C=C/C=C/c1ccccc1)NCCCCCCC(=O)NO` [PX106518], for which the melting point (as a rule, the temperature of the solid-liquid transition) lay within 147 to 149 °C. The IC50 in the data set with HeLa cells came out at 650 nM. Besides, the IC50 in the data set with HDAC (HeLa cell extract) (setting [1]) came out at 62 nM. Also, the IC50 in the data set with HDAC (HeLa cell extract) (comparative tables, no unit in cell, read-out: HeLa IC50) worked out at 62 nM.

As for `CN(C)c1ccc(C(=O)NCCCCC(=O)NO)c2ccccc12` [PX082534, 4-Dimethylamino-napthalene-1-carboxylic acid (4-hydroxycarbamoyl-butyl)-amide], the melting point came to 129 °C. Moreover, the IC50 with HeLa cells was 24000 nM. The IC50 with HDAC (HeLa cell extract) (setting [1]) came to 1500 nM. Besides, the IC50 in the data set on HDAC (HeLa cell extract) (setting [2]) was found to be 1500 nM.

For `CC(C)c1ccc(C(=O)NCCCCCC(=O)NO)cc1` [PX117421, N-[6-(Hydroxyamino)-6-oxohexyl]-4-isopropylbenzamide], the melting point is 127.5 to 128 °C. The IC50 in the data set on HeLa cells came out at 3100 nM. Further, the IC50 in the data set with HDAC (HeLa cell extract) (setting [1]) was 85 nM.

With `O=C(CCCCCNC(=O)[C@H](Cc1c[nH]c2ccccc12)NC(=O)Cc1ccc2ccccc2c1)NO` [PX117406, N-Hydroxy-6-[((2S)-3-(1H-indol-3-yl)-2-{[2-(2-naphthyl)acetyl]-amino}propanoyl)amino]-hexanamide], the melting point was in the range of 112 to 114 °C. For the same compound, the IC50 in the data set with HeLa cells came out at 6900 nM. In addition, in the data set on HDAC (HeLa cell extract), the “HDAC Inhibition HeLa, percent” value is listed as 48% @ 500 nM.

Take `O=C(/C=C/C=C/c1ccccc1[N+](=O)[O-])NCCCCCC(=O)NO` [PX105830, (2E,4E)-5-(2-Nitrophenyl)penta-2,4-dienoic acid (5-hydroxycarbamoyl-pentyl)amide]: the melting point fell in the range of 131 to 133 °C. In addition, the IC50 with HeLa cells worked out at 14000 nM. Also, the IC50 in the data set on HDAC (HeLa cell extract) (setting [1]) stood at 82 nM.

For the compound `O=C(/C=C/c1ccco1)NCCCCCC(=O)NO` [PX106491, 3-Furan-2-yl-N-(5-hydroxycarbamoyl-pentyl)-acrylamide], the melting point was in the range of 151 to 152.5 °C. Besides, the IC50 in the data set with HeLa cells is 520 nM. In the data set on HDAC (HeLa cell extract) (setting [1]), the IC50 turned out to be 83 nM. For the same compound, in the data set with HDAC (HeLa cell extract) (setting [2]), the IC50 turned out to be 83 nM.

In turn, `O=C(CCCCCNC(=O)CCCCc1ccccc1)NO` [PX117261, 6-(5-Phenyl-pentanoylamino)-hexanoic acid hydroxyamide] gave a melting point of 97 to 98 °C. Besides, in the data set with HeLa cells, the IC50 was found to be 71000 nM. Besides, in the data set on HDAC (HeLa cell extract), the “HDAC Inhibition HeLa, percent” value is 51% @ 500 nM.

Compound `O=C(/C=C/c1cccs1)NCCCCCC(=O)NO` [PX117247, N-(5-Hydroxycarbamoyl-pentyl)-3-thiophen-2-yl-acrylamide] returned a melting point of 151 to 153 °C. Besides, in the data set with HeLa cells, the IC50 is 570 nM. In the data set on HDAC (HeLa cell extract) (setting [1]), the IC50 came to 19 nM.

Regarding `O=C(CCCCCC(=O)Nc1ccc2ccccc2c1)NO` [PX117461, Heptanedioic acid hydroxyamide naphthalen-2-ylamide], the melting point lay within 142 to 144 °C. In the data set with HeLa cells, the IC50 is above 5000 nM. In addition, in the data set on HDAC (HeLa cell extract) (setting [1]), the IC50 turned out to be 20 nM.

As to `O=C(CCCCCNC(=O)c1ccco1)NO` [PX105826, Furan-2-carboxylic acid (5-hydroxycarbamoyl-pentyl)-amide], the melting point lay within 113.5 to 115 °C. Further, the IC50 in the data set on HeLa cells stood at 18000 nM. In addition, the IC50 in the data set on HDAC (HeLa cell extract) (setting [1]) was found to be 396 nM. The IC50 with HDAC (HeLa cell extract) (setting [2]) came out at 400 nM.

The compound `O=C(CCCCCCC(=O)NCCc1c[nH]c2ccccc12)NO` [PX116216, Octanedioic acid hydroxyamide [2-(1H-indol-3-yl)-ethyl]-amide] came in with a melting point of 118.5 to 120 °C. The IC50 with HeLa cells is 6000 nM. Also, the IC50 in the data set with HDAC (HeLa cell extract) (setting [1]) was 100 nM.

Compound `C/C(=C\C=C\c1ccccc1)C(=O)NCCCCCC(=O)NO` [PX106520, (2E,4E)-2-Methyl-5-phenylpenta-2,4-dienoic acid (5-hydroxycarbamoylpentyl)-amide] gave a melting point of 158 to 160 °C. In the data set on HeLa cells, the IC50 stood at 8400 nM. Also, the IC50 with HDAC (HeLa cell extract) (setting [1]) came out at 63 nM.

Turning to `O=C(CCCCCCC(=O)NC(c1ccccc1)c1ccccc1)NO` [PX117417, N^1-benzhydryl-N^8-hydroxyoctanediamide], the melting point was in the range of 155 to 156.5 °C. The “HDAC Inhibition HeLa, percent” value in the data set with HDAC (HeLa cell extract) worked out at 56% @ 500 nM.

`CC(C)(C)c1ccc(C(=O)NCCCCCC(=O)NO)cc1` [PX106496, 4-tert-Butyl-N-(5-hydroxycarbamoylpentyl)benzamide] returned a melting point of 150 to 151.5 °C. Besides, the IC50 in the data set on HeLa cells came to 5800 nM. Further, in the data set with HDAC (HeLa cell extract) (setting [1]), the IC50 was found to be 82 nM.

The compound `O=C(CCCCCC(=O)NCCc1c[nH]c2ccccc12)NO` [PX117408, N^1-Hydroxy-N^7-[2-(1H-indol-3-yl)ethyl]heptanediamide] yielded a melting point of 140 to 142 °C. In the data set on HeLa cells, the IC50 amounted to 11000 nM. Besides, in the data set on HDAC (HeLa cell extract), the “HDAC Inhibition HeLa, percent” value came out at 41% @ 500 nM.

The compound `O=C(C#Cc1ccccc1)NCCCCCC(=O)NO` [PX117415, 3-Phenyl-propynoic acid (5-hydroxycarbamoyl-pentyl)-amide] gave a melting point of 112 to 113 °C. For the same compound, the IC50 with HeLa cells stood at 11000 nM. The IC50 in the data set with HDAC (HeLa cell extract) (setting [1]) amounted to 62 nM.

As for `O=C(CCCCCCC(=O)NCC(c1ccccc1)c1ccccc1)NO` [PX117249, Octanedioic acid (2,2-diphenyl-ethyl)-amide hydroxyamide], the melting point lay within 123 to 123.5 °C. Moreover, the IC50 in the data set on HeLa cells was 11000 nM. The “HDAC Inhibition HeLa, percent” value with HDAC (HeLa cell extract) came to 64% @ 500 nM.

For `O=C(CCCCCNC(=O)c1cccc2ccccc12)NO` [PX105828, Naphthalene-1-carboxylic acid (5-hydroxycarbamoyl-pentyl)-amide], the melting point was in the range of 118 to 119 °C. Besides, in the data set on HeLa cells, the IC50 is 17000 nM. Moreover, the IC50 in the data set on HDAC (HeLa cell extract) (setting [1]) was determined as 333 nM. In addition, the IC50 in the data set on HDAC (HeLa cell extract) (setting [2]) amounted to 333 nM.

On to `N#Cc1ccc(C(=O)NCCCCCC(=O)NO)cc1` [PX106497, 4-Cyano-N-(5-hydroxycarbamoylpentyl)-benzamide], for which the melting point was 234 to 236 °C. In the data set with HDAC (HeLa cell extract), the “HDAC Inhibition HeLa, percent” value came out at 30% @ 500 nM.

`O=C(CCCCCNC(=O)Cc1c[nH]c2ccccc12)NO` [PX116214, 6-(2-1H-lndol-3-yl-acetylamino)-hexanoic acid hydroxyamide]: the melting point lay within 130 to 131.5 °C. In the data set on HDAC (HeLa cell extract), the “HDAC Inhibition HeLa, percent” value is reported as 35% @ 500 nM.

Compound `O=C(CCCCCCC(=O)Nc1cccc2ccccc12)NO` [PX116218, Octanedioic acid hydroxyamide naphthalen-1-ylamide] came in with a melting point of 115 to 116.5 °C. In the data set on HDAC (HeLa cell extract) (setting [1]), the IC50 was found to be 33 nM.

For `O=C(CCCCNC(=O)c1ccc2ccccc2c1)NO` [PX106492, Naphthalene-2-carboxylic acid (4-hydroxycarbamoyl-butyl)-amide], the melting point is 155 to 156 °C. Moreover, in the data set with HDAC (HeLa cell extract), the “HDAC Inhibition HeLa, percent” value stood at 42% @ 500 nM.

In turn, `O=C(CCCCCNC(=O)c1ccc(Br)o1)NO` [PX116221, 5-Bromo-furan-2-carboxylic acid (5-hydroxycarbamoyl-pentyl)-amide] displayed a melting point of 122 to 124 °C. The “HDAC Inhibition HeLa, percent” value in the data set with HDAC (HeLa cell extract) turned out to be 72% @ 500 nM.

Compound `O=C(/C=C/c1cccc(NC(=O)CCCc2ccccc2)c1)NO` [PX116212, (E)-N-Hydroxy-3-{3-[(4-phenylbutanoyl)amino]phenyl}-2-propenamide] showed a melting point of 152 to 153 °C. Moreover, the “HDAC Inhibition HeLa, percent” value in the data set with HDAC (HeLa cell extract) is 72% @ 500 nM.

The record behind these values is patent US7569724B2, “Carbamic acid compounds comprising an amide linkage as HDAC inhibitors” (Topotarget UK Limited, priority 2000, dated 2009).
